Converted amounts (≈) assume the structure as drawn.
Key:
[1] = test system: Syncephalastrum racemosum (RCMB 05922); experiment: MIC by serial dilution method; assay type: cell-based; conditions: RCMB05922, fungi, read-out: Minimum inhibitory concentration, MIC, S.R
Method: (§1) All the newly synthesized compounds described in this report were screened for both antibacterial and antifungal activity via the reported agar diffusion well method (Vanden Berghe and Vlietinck, 1991[62]). The inhibition zones and minimum inhibitory concentrations (MIC) were determined by the serial dilution method (Cappuccino and Sherman, 1999[12]). The antimicrobial activity of the synthesized compounds was tested against a broad panel of microorganisms including two Gram-positive bacteria: Streptococcus pneumoniae (RCMB 010010) and Bacillus subtilis (RCMB 010067), two Gram-negative bacteria: Pseudomonas aeruginosa (RCMB 010043) and Escherichia coli (RCMB 010052), and four fungi: Aspergillus fumigatus (RCMB 02568), Syncephalastrum racemosum (RCMB 05922), Geotricum candidum (RCMB 05097), and Candida albicans (RCMB 05036). Ampicillin, ciprofloxacin, gentamicin and amphotericin B were used as positive control drugs (Atta-ur-Rahman and Thomsen, 2001[7]; Smania et al., 1999[57]). […] While in the case of Gm-ve bacteria, they had weak activity. In addition, certain strains of fungi were sensitive to tested compounds with an IZ range from 12-25 except Candida albicans.

[2] = test system: Aspergillus fumigatus (RCMB 02568); experiment: MIC by serial dilution method; assay type: cell-based; conditions: RCMB02568, fungi, read-out: Minimum inhibitory concentration, MIC, A.F
Method: as §1

[3] = test system: Geotricum candidum (RCMB 05097); experiment: MIC by serial dilution method; assay type: cell-based; conditions: fungi; read-out: Minimum inhibitory concentration, MIC, G.C
Method: as §1

[4] = test system: Streptococcus pneumoniae (RCMB 010010); experiment: MIC by serial dilution method; assay type: cell-based; conditions: RCMB010010, Gm+ve, read-out: Minimum inhibitory concentration, MIC, S.P
Method: as §1

[5] = test system: Bacillus subtilis (RCMB 010067); experiment: MIC by serial dilution method; assay type: cell-based; conditions: RCMB010067, Gm+ve, read-out: Minimum inhibitory concentration, MIC, B.S
Method: as §1

[6] = test system: Pseudomonas aeruginosa (RCMB 010043); experiment: MIC by serial dilution method; assay type: cell-based; conditions: RCMB010043, Gm-ve, read-out: Minimum inhibitory concentration, MIC, P.A
Method: as §1

[7] = test system: Escherichia coli (RCMB 010052); experiment: MIC by serial dilution method; assay type: cell-based; conditions: RCMB010052, Gm-ve, read-out: Minimum inhibitory concentration, MIC, E.C
Method: as §1

[8] = test system: Human colon carcinoma (HCT-116); experiment: Cytotoxic screening; assay type: cell-based; conditions: Homo sapiens, HCT-116; read-out: IC50 HCT-116
Method: (§2) Human colon carcinoma (HCT-116), human hepatocellular carcinoma (HEPG-2), adenocarcinomic human alveolar basal epithelial cell (A-549), and human breast adenocarcinoma (MCF-7) cell lines were obtained from the American Type Culture Collection (ATCC, Rockville, MD). The cells were grown on RPMI-1640 medium supplemented with 10 % inactivated fetal calf serum and 50 µg/ml gentamycin. The cells were maintained at 37 °C in a humidified atmosphere with 5 % CO2 and were subcultured two to three times a week. Potential cytotoxicity of the compounds was evaluated on tumor cells using the method of Gangadevi and Muthumary (2007[21]) (Klancnik et al., 2010[36]). The cells were grown as monolayers in growth RPMI-1640. The monolayers of 104 cells adhered at the bottom of the wells in a 96-well microtiter plate incubated for 24 h at 37 °C in a humidified incubator with 5 % CO2. The monolayers were then washed with sterile phosphate buffered saline (0.01 M pH 7.2) and simultaneously the cells were treated with 100 µL from different dilutions of tested sample in fresh maintenance medium and incubated at 37 °C. A control of untreated cells was made in the absence of tested sample. Positive controls containing doxorubicin were also tested as a reference drug for comparison. Six wells were used for each concentration of the test sample. Every 24 hours an observation under the inverted microscope was made. The number of the surviving cells was determined by staining the cells with crystal violet (Mosmann, 1983[42]; Gangadevi and Muthumary, 2007[21]) followed by cell lysing using 33 % glacial acetic acid and reading the absorbance at 590 nm using microplate reader (SunRise, TECAN, Inc, USA) after well mixing. The absorbance values from untreated cells were considered as 100 % proliferation. The number of viable cells was determined using microplate reader as previously mentioned before and the percentage of […] was calculated as [1-(ODt/ODc)] x 100 % where ODt is the mean optical density of wells treated with the tested sample and ODc is the mean optical density of untreated cells. The relation between surviving cells and drug concentration was plotted to get the survival curve of each tumor cell line after treatment with the specified compound. The 50 % inhibitory concentration (IC50), the concentration required to cause toxic effects in 50 % of intact cells, was estimated from graphic plots.
(§3) The in vitro cytotoxic activity was performed by MTT assay (Mosmann, 1983[42]; Alley et al., 1988[6]) against three human carcinoma cell lines: Human colon carcinoma (HCT-116), human breast adenocarcinoma (MCF-7), and human hepatocellular carcinoma (HEPG-2).

[9] = test system: human breast adenocarcinoma (MCF-7); experiment: Cytotoxic screening; assay type: cell-based; conditions: Homo sapiens, MCF7; read-out: IC50 MCF-7
Method: as §2, §3

[10] = test system: human hepatocellular carcinoma (HEPG-2); experiment: Cytotoxic screening; assay type: cell-based; conditions: HepG2, read-out: IC50 HepG-2
Method: as §2, §3

[11] = test system: Syncephalastrum racemosum (RCMB 05922); experiment: Well diffusion assay (inhibition zone); assay type: cell-based; conditions: RCMB05922, 5 mg/mL in DMSO, fungi, read-out: Inhibition Zone (IZ) diameter, S.R
Method: (§4) The microorganism inoculums were uniformly spread using sterile cotton swabs on a sterile Petri dish malt extract agar (for fungi) and nutrient agar (for bacteria). One hundred cubic millimeters of each sample was added to each well (10 mm-diameter holes were cut in the agar gel, 20 mm apart from one another). The systems were incubated for 24-48 h at 37 °C (for bacteria) and at 28 °C (for fungi). After incubation, the microorganism growth was observed. Inhibition zones of the bacterial and fungal growth were measured in millimeters. Tests were performed in triplicate (Cappuccino and Sherman, 1999[12]; Vanden Berghe and Vlientinck, 1991[62]).
as §1

[12] = test system: Aspergillus fumigatus (RCMB 02568); experiment: Well diffusion assay (inhibition zone); assay type: cell-based; conditions: RCMB02568, 5 mg/mL in DMSO, fungi, read-out: Inhibition Zone (IZ) diameter, A.F
Method: as §4, §1

[13] = test system: Geotricum candidum (RCMB 05097); experiment: Well diffusion assay (inhibition zone); assay type: cell-based; conditions: 5 mg/mL in DMSO; fungi; read-out: Inhibition Zone (IZ) diameter, G.C
Method: as §4, §1

[14] = test system: Streptococcus pneumoniae (RCMB 010010); experiment: Well diffusion assay (inhibition zone); assay type: cell-based; conditions: RCMB010010, 5 mg/mL in DMSO, Gm+ve, read-out: Inhibition Zone (IZ) diameter, S.P
Method: as §4, §1

[15] = test system: Bacillus subtilis (RCMB 010067); experiment: Well diffusion assay (inhibition zone); assay type: cell-based; conditions: RCMB010067, 5 mg/mL in DMSO, Gm+ve, read-out: Inhibition Zone (IZ) diameter, B.S
Method: as §4, §1

[16] = test system: Pseudomonas aeruginosa (RCMB 010043); experiment: Well diffusion assay (inhibition zone); assay type: cell-based; conditions: RCMB010043, 5 mg/mL in DMSO, Gm-ve, read-out: Inhibition Zone (IZ) diameter, P.A
Method: as §4, §1

[17] = test system: Escherichia coli (RCMB 010052); experiment: Well diffusion assay (inhibition zone); assay type: cell-based; conditions: RCMB010052, 5 mg/mL in DMSO, Gm-ve, read-out: Inhibition Zone (IZ) diameter, E.C
Method: as §4, §1

| Compound | MIC [1] | MIC [2] | MIC [3] | MIC [4] | MIC [5] | MIC [6] | MIC [7] | melting point | IC50 [8] | IC50 [9] | IC50 [10] | zone of inhibition at 5000 µg/mL [11] | zone of inhibition at 5000 µg/mL [12] | zone of inhibition at 5000 µg/mL [13] | zone of inhibition at 5000 µg/mL [14] | zone of inhibition at 5000 µg/mL [15] | zone of inhibition at 5000 µg/mL [16] | zone of inhibition at 5000 µg/mL [17] |
| --- | --- | --- | --- | --- | --- | --- | --- | --- | --- | --- | --- | --- | --- | --- | --- | --- | --- | --- |
| N#CC1=C(N)Oc2cc(O)c(N=Nc3ccc(C(=O)O)cc3)cc2C1c1ccccc1F (centres unmarked) [13e, 4-[2-Amino-3-cyano-4-(2-fluoro-phenyl)-7-hydroxy-4H-chromen-6-ylazo]-benzoic acid] | 3.9 µg/mL (≈ 9.06 µM) | 0.98 µg/mL (≈ 2.28 µM) | 0.49 µg/mL (≈ 1.14 µM) | 0.12 µg/mL (≈ 0.279 µM) | 0.06 µg/mL (≈ 0.139 µM) | 3.9 µg/mL (≈ 9.06 µM) | 3.9 µg/mL (≈ 9.06 µM) | 243 °C | 46.7 µg/mL (≈ 109 µM) | 27.9 µg/mL (≈ 64.8 µM) | 20.5 µg/mL (≈ 47.6 µM) | 19.3 mm | 21.3 mm | 21.8 mm | 23.6 mm | 25.2 mm | 19.3 mm | 19.3 mm |
| O=C(O)c1cn(C2CC2)c2cc(N3CCNCC3)c(F)cc2c1=O [Ciprofloxacin, reference compound] | – | – | – | – | – | 0.99 µg/mL (≈ 2.99 µM) | 0.49 µg/mL (≈ 1.48 µM) | – | – | – | – | – | – | – | – | – | 22.3 mm | 25.3 mm |
| O=[N+]([O-])c1ccc(N=Nc2ccc(O)cc2O)cc1 [12c, 4-(4-Nitro-phenylazo)-benzene-1,3-diol] | 125 µg/mL (≈ 482 µM) | 62.5 µg/mL (≈ 241 µM) | 15.6 µg/mL (≈ 60.3 µM) | 31.2 µg/mL (≈ 121 µM) | 7.81 µg/mL (≈ 30.1 µM) | – | 125 µg/mL (≈ 482 µM) | – | 30.2 µg/mL (≈ 117 µM) | 24 µg/mL (≈ 92.6 µM) | 21.2 µg/mL (≈ 81.8 µM) | 14.2 mm | 16.4 mm | 17.9 mm | 17.2 mm | 18.6 mm | – | 13.5 mm |
| CC(C)(C)c1ccc(C2C(C#N)=C(N)Oc3cc(O)c(N=Nc4ccc(O)cc4)cc32)cc1 (centres unmarked) [13i, 2-Amino-4-(4-tert-butyl-phenyl)-7-hydroxy-6-(4-hydroxy-phenylazo)-4H-chromene-3-carbonitrile] | 15.6 µg/mL (≈ 35.5 µM) | 3.9 µg/mL (≈ 8.85 µM) | 0.98 µg/mL (≈ 2.22 µM) | 0.24 µg/mL (≈ 0.545 µM) | 0.12 µg/mL (≈ 0.272 µM) | 15.6 µg/mL (≈ 35.5 µM) | 3.9 µg/mL (≈ 8.85 µM) | 255 °C | 75.7 µg/mL (≈ 172 µM) | 47 µg/mL (≈ 107 µM) | 31.6 µg/mL (≈ 71.7 µM) | 19.2 mm | 17.3 mm | 20.3 mm | 21.3 mm | 22.4 mm | 16.2 mm | 17.2 mm |
| CNC(C)C1CCC(N)C(OC2C(N)CC(N)C(OC3OCC(C)(O)C(NC)C3O)C2O)O1 (centres unmarked) [Gentamicin, reference compound] | – | – | – | – | – | 31.2 µg/mL (≈ 65.4 µM) | 3.9 µg/mL (≈ 8.17 µM) | – | – | – | – | – | – | – | – | – | 17.3 mm | 19.9 mm |
| CC1(C)S[C@@H]2[C@H](NC(=O)[C@H](N)c3ccccc3)C(=O)N2[C@H]1C(=O)O [Ampicillin, reference compound] | – | – | – | 0.24 µg/mL (≈ 0.687 µM) | 0.007 µg/mL (≈ 0.02 µM) | – | – | – | – | – | – | – | – | – | 23.8 mm | 32.4 mm | – | – |
| CC(C)(C)c1ccc(C2C(C#N)=C(N)Oc3c2ccc2c(N)cccc32)cc1 (centres unmarked) [7a, 2,7-Diamino-4-(4-tert-butyl-phenyl)-4H-benzo[h]chromene-3-carbonitrile] | – | – | – | – | – | – | – | 210 °C | 14.3 µg/mL (≈ 38.7 µM) | 17.5 µg/mL (≈ 47.4 µM) | 11.9 µg/mL (≈ 32.2 µM) | 14.1 mm | 15.4 mm | 15.8 mm | 16.1 mm | 16.9 mm | – | 13.8 mm |
| CCCCc1ccc(C2C(C#N)=C(N)Oc3cc(O)c(N=Nc4ccc(S(=O)(=O)O)cc4)cc32)cc1 (centres unmarked) [13h, 4-[2-Amino-4-(4-butyl-phenyl)-3-cyano-7-hydroxy-4H-chromen-6-ylazo]-benzenesulfonic acid] | – | – | – | – | – | – | – | 275 °C | 88.6 µg/mL (≈ 176 µM) | 44.6 µg/mL (≈ 88.4 µM) | 40.4 µg/mL (≈ 80.1 µM) | 13.6 mm | 12.1 mm | 15.8 mm | 15.3 mm | 16.3 mm | – | 13.9 mm |

From article PMC5547389, “Structure-activity relationships and molecular docking studies of chromene and chromene based azo chromophores: A novel series of potent antimicrobial and anticancer agents” (EXCLI Journal, 2017)
